Test results taken from patent US5663333A, “Substituted 1,4-diazapine caprolactams useful for treatment of HIV disease” (The DuPont Merck Pharmaceutical Company, priority 1993, dated 1997).

Assays:
HIV-1 protease = target: T1, HIV-1 protease (Human immunodeficiency virus type 1 group M subtype B, UniProt P04585); assay: HIV Protease Inhibition Assay - HPLC Method; type: biochemical; conditions: single-chain tethered dimer of HIV protease, pH 5.5
T1 construct: synthetic gene coding for a single-chain tethered dimer of HIV protease; second copy of HIV protease joined in the same chain by a tether (single-chain tethered dimer); made in house
Protocol: Protease: Inclusion bodies of E. coli harboring plasmid containing plasmid T1718R with a synthetic gene coding for a single-chain tethered dimer of HIV protease were prepared as described in Cheng et al. (Proc. Natl. Acad. Sci. USA, 87, 9660-9664, 1990). Active protease was prepared as described therein by extraction with 67% acetic acid, dilution 33-fold with water, dialysis against water and then against a "refolding buffer" consisting of 20 mM MES, 1 mM dithiothreitol and 10% glycerol. Protease was stored as a stock preparation at 10 uM in refolding buffer. […]
HPLC measurement of product formation: The product (aminobenzoyl-Ala--Thr--His--Gln--Val--Tyr) was separated from substrate on a Pharmacia MonoQ anion exchange column. […] Detection with a Shimadzu model RF535 fluorescence monitor was at 330 nm (excitation) and 430 (emission). The Ki was calculated from the formula Ki=I/(((Km+S-FA*S)/(FA*Km))-1) where I=inhibitory concentration, S=substrate concentration, FA=fractional activity=cm peak height with inhibitor/cm peak height without inhibitor, and Km=Michaelis constant=20 uM.
In the Tables herein the Ki values were determined using the assay conditions described above under HIV Protease Inhibition Assay-HPLC Method. […]

[1] = test system: HIV(3B) or HIV(RF) in MT-2 cells; assay: HIV Low Multiplicity Assay (whole cell infectivity assay); type: cell-based; conditions: Human immunodeficiency virus 1, MT2, 168 h, 7 days, XTT, 90% protection from virus induced cell death
Protocol: Materials: MT-2, a human T-Cell line, was cultured in RPMI medium supplemented with 5% (v/v) heat inactivated fetal calf serum (FCS), L-glutamine and gentamycin (GIBCO). Human immunodeficiency virus strains HIV (3B) and HIV (RF) were propagated in H-9 cells in RPMI with 5% FCS. XTT, benzene-sulfonic acid, 3,3'-[1-[(phenyl-amino) carbonyl]-3,4-tetrazolium]bis(4-methoxy-6-nitro)-, sodium salt, was obtained from Starks Associates, Inc.
Method: Test compounds were dissolved in dimethylsulfoxide to 5 mg/ml and serially diluted into RPMI medium to ten times the desired final concentration. MT-2 cells (5×10^4 /0.1 mL) were added to each well of a 96 well culture plate and 0.02 mL of the appropriate test compound solution was added to the cells such that each compound concentration was present in two wells. The cells and compounds were allowed to sit for 30 minutes at room temperature. […] The percentage of cells protected from virus induced cell death was determined by the degree of metabolism of the tetrazolium dye, XTT. In living cells, XTT was metabolized to a colored formazan product which was quantitated spectrophotometrically at 450 nm. […]
In the Tables herein the IC90 values were determined using the assay conditions described above under HIV Low Multiplicity Assay. […]

| Structure (SMILES) | Ki (HIV-1 protease) [nM] | IC90 [1] [µg/mL] |
| --- | --- | --- |
| O=C1N[C@H](Cc2ccccc2)[C@H](O)CN[C@H]1Cc1ccccc1 [Example 1] | < 10 | < 10 |
| O=C1N[C@H](Cc2ccccc2)[C@H](O)CN(Cc2ccccc2)[C@H]1Cc1ccccc1 [Example 24] | 10 to 1000 | < 10 |
